Tested on: endometrium
Text: Efforts were made to recruit an equal number of women with high endometrial thickness (>7 mm) and low endometrial thickness (<7 mm). On the day of surgery, the subject underwent a vaginal ultrasound, to re-measure the endometrial thickness, and hysteroscopy, to visualize the uterine cavity and the endometrium.
After surgery, the extracted uterus was immediately evaluated by the study pathologist for gross pathology and silver nitrate coverage of the endometrium and was later subjected to pathology (macroscopic analyses of the intra-uterine cavity and microscopic analyses of the multiple sections of the uteri) histopathological evaluations to define the extent of active material endometrium coverage and endometrial ablation.

Compound: O=[N+]([O-])[O-].[Ag+] [silver nitrate]
- Staining of / spillage via the fallopian tubes (30 minutes in uterus, extracted uterus): No staining of the fallopian tubes
- Cervix findings (histology): superficial silver nitrate staining, with no damage to the columnar epithelium and no pathological findings
- Cauterization effect (overall conclusion): elicited the expected cauterization effect
